Like-named read-outs stand apart in the source and are kept apart here.
Test system: MRSA COL (MB5393)
Assay: TarO Inhibitor/β-Lactam Synergy Assay
Assay type: cell-based, Staphylococcus aureus
Details: 20 hours; for IC95: TarO inhibitor alone, OD600, 95% growth inhibition, read-out: MITC95 TarO inhibitor alone, Bacteria: SA_MB5393; for MITC95 TarO inhibitor + 4 μg/mL IPM; Bacteria: SA_MB5393: in combination with 4 μg/mL imipenem; for MITC95 TarO inhibitor + 4 μg/mL IPM; Bacteria: SA_MB5393 / MITC95 TarO inhibitor + 8 μg/mL DCX; Bacteria: SA_MB5393: OD600; for MITC95 TarO inhibitor + 8 μg/mL DCX; Bacteria: SA_MB5393: in combination with 8 μg/mL dicloxacillin
Procedure: The TarO inhibitor/β-lactam synergy assay was performed to measure the re-sensitization of methicillin-resistant Staphylococci bacteria (MB5393: MRSA COL) to β-lactam antibiotics by TarO inhibitors. MRSA COL is a hospital-acquired penicillinase-negative clinically isolated strain commonly used in Staphylococcus aureus studies and is fully resistant to the antimicrobial bioactivity of β-lactam antibiotics, including but not limited to imipenem and dicloxacillin. […] MRSA COL is fully refractory to β-lactam antibiotic effect at the current clinical breakpoint concentrations and as such MRSA COL is fully viable at these concentrations.
The β-lactam antibiotic concentration was fixed at the clinical breakpoint (imipenem 4 μg/ml or dicloxacillin 8 μg/ml) and the TarO inhibitors were titrated by 2 fold starting from the highest concentration of 200 μM with final DMSO concentration of 2% in the assay. 5×10^5 colony forming unit of MRSA COL in cation-adjusted Mueller Hinton broth (CAMHB) was then mixed and the assay plate was incubated for 20 hours at 37° C. without shaking. After 20 hours, the optical density at 600 nm (OD600) was read for all wells to determine relative growth of MRSA COL.

SMILES | IC95 (Staphylococcus aureus) [µM] | MITC95 TarO inhibitor + 4 μg/mL IPM; Bacteria: SA_MB5393 [µM] | MITC95 TarO inhibitor + 8 μg/mL DCX; Bacteria: SA_MB5393 [µM] | IC95 [µM]
CCN(C(=O)CCn1c2ccc(CO)cc2nc1[C@H]1CC[C@H](CC)CC1)C1CCCCC1 [Example 1, N-cyclohexyl-N-ethyl-3-(2-(trans-4-ethylcyclohexyl)-5-(hydroxymethyl)-1H-benzo[d]imidazol-1-yl)propanamide] | > 200 | 1.82 | 6.25 | –
CCN(C(=O)CCn1c2cccnc2nc1[C@H]1CC[C@H](CC)CC1)C1CCCCC1 [Example 2, N-cyclohexyl-N-ethyl-3-[2-(trans-4-ethylcyclohexyl)-1H-imidazo[4,5-b]pyridin-1-yl]propanamide] | > 200 | 1.88 | 18.75 | –
CCN(C(=O)CCn1c2cc(C#N)ccc2nc1[C@H]1CC[C@H](CC)CC1)C1CCCCC1 [Example 3, 3-[6-cyano-2-(trans-4-ethylcyclohexyl)-1H-benzimidazol-1-yl]-N-cyclohexyl-N-ethylpropanamide] | > 200 | 4.17 | 20.83 | –
CCN(C(=O)CCn1c2cnccc2nc1[C@H]1CC[C@H](CC)CC1)C1CCCCC1 [Example 4, N-cyclohexyl-N-ethyl-3-[2-(trans-4-ethylcyclohexyl)-3H-imidazo[4,5-c]pyridin-3-yl]propanamide] | > 200 | 4.17 | 41.67 | –
CCN(C(=O)CCn1c2ccc(Br)cc2nc1[C@H]1CC[C@H](CC)CC1)C1CCCCC1 [Example 5, 3-[5-bromo-2-(trans-4-ethylcyclohexyl)-1H-benzimidazol-1-yl]-N-cvclohexyl-N-ethylpropanamide] | > 200 | 0.01 | 0.02 | –
CCN(C(=O)CCn1c2cc(F)ccc2nc1[C@H]1CC[C@H](CC)CC1)C1CCCCC1 [Example 6, N-cyclohexyl-N-ethyl-3-(2-(trans-4-ethvlcyclohexyl)-6-fluoro-1H-benzo[d]imidazol-1-yl)propanamide] | > 200 | 0.13 | 0.59 | –
CCN(C(=O)CCn1c2ccc(C(F)(F)F)cc2nc1[C@H]1CC[C@H](CC)CC1)C1CCCCC1 [Example 7, N-cyclohexyl-N-ethyl-3-[2-(trans-4-ethylcyclohexyl)-5-(trifluoromethyl)-1H-benzimidazol-1-yl]propanamide] | > 200 | 0.20 | 0.20 | –
CCN(C(=O)CCn1c2cc(Br)ccc2nc1[C@H]1CC[C@H](CC)CC1)C1CCCCC1 [Example 8, 3-[6-bromo-2-(trans-4-ethylcyclohexyl)-1H-benzimidazol-1-yl]-N-cyclohexyl-N-ethylpropanamide] | > 200 | 0.06 | 0.22 | –
CCN(C(=O)CCn1c2cccc(F)c2nc1[C@H]1CC[C@H](CC)CC1)C1CCCCC1 [Example 9, N-cyclohexyl-N-ethyl-3-[2-(trans-4-ethylcyclohexyl)-4-fluoro-1H-benzimidazol-1-yl]propanamide] | > 200 | 0.13 | 0.79 | –
CCN(C(=O)CCn1c2ccc(F)cc2nc1[C@H]1CC[C@H](CC)CC1)C1CCCCC1 [Example 10, N-cyclohexyl-N-ethyl-3-[2-(trans-4-ethylcyclohexyl)-5-fluoro-1H-benzimidazol-1-yl]propanamide] | > 200 | 0.004 | 0.03 | –
CCN(C(=O)CCn1c2c(F)cccc2nc1[C@H]1CC[C@H](CC)CC1)C1CCCCC1 [Example 11, N-cyclohexyl-N-ethyl-3-[2-(trans-4-ethylcyclohexyl)-7-fluoro-1H-benzimidazol-1-yl]propanamide] | > 200 | 0.40 | 1.04 | –
CCN(C(=O)CCn1c(C2CCCN(C(=O)OC(C)(C)C)C2)nc2cc(F)ccc21)C1CCCCC1 (stereo not drawn) [Example 12, tert-butyl 3-(1-{3-[cyclohexyl(ethyl)amino]-3-oxopropyl}-5-fluoro-1H-benzimidazol-2-yl)piperidine-1-carboxylate] | > 200 | 0.50 | 1.09 | –
CCOC(=O)N1CCCC(c2nc3cc(F)ccc3n2CCC(=O)N(CC)C2CCCCC2)C1 (stereo not drawn) [Example 13, Ethyl 3-(1-{3-[cyclohexyl(ethyl)amino]-3-oxopropyl}-5-fluoro-1H-benzimidazol-2-yl)piperidine-1-carboxylate] | > 200 | 0.35 | 2.19 | –
CCN(C(=O)CCn1c2cc(CO)ccc2nc1[C@H]1CC[C@H](CC)CC1)C1CCCCC1 [Example 14, N-cyclohexyl-N-ethyl-3-[2-(trans-4-ethylcyclohexyl)-6-(hydroxymethyl)-1H-benzimidazol-1-yl]propanamide] | > 200 | 0.52 | 3.13 | –
CCN(C(=O)CCn1c(C2CCCN(C(=O)OC(C)(C)C)C2)nc2cc(F)ccc21)C1CCCCC1 (stereo not drawn) [Example 15, tert-butyl 3-(1-{3-[cyclohexyl(ethyl)amino]-3-oxopropyl}-5-fluoro-1H-benzimidazol-2-yl)piperidine-1-carboxylate] | – | 0.52 | 4.17 | >200
CCN(C(=O)CCn1c2ccc(OC)cc2nc1[C@H]1CC[C@H](CC)CC1)C1CCCCC1 [Example 16, N-cyclohexyl-N-ethyl-3-[2-(trans-4-ethylcyclohexyl)-5-methoxy-1H-benzimidazol-1-yl]propanamide] | > 200 | 1.04 | 14.58 | –
CCN(C(=O)CCn1c2ccncc2nc1[C@H]1CC[C@H](CC)CC1)C1CCCCC1 [Example 17, N-cyclohexyl-N-ethyl-3-[2-(trans-4-ethylcyclohexyl)-1H-imidazo[4,5-c]pyridin-1-yl]propanamide] | > 200 | 0.98 | 6.25 | –
CCOC(=O)N1CCCC(c2nc3cc(F)ccc3n2CCC(=O)N(CC)C2CCCCC2)C1 (stereo not drawn) [Example 18, Ethyl 3-(1-{3-[cyclohexyl(ethyl)amino]-3-oxopropyl}-5-fluoro-1H-benzimidazol-2-yl)piperidine-1-carboxylate] | – | 1.09 | 23.75 | >200
CCN(C(=O)CCn1c2ncccc2nc1[C@H]1CC[C@H](CC)CC1)C1CCCCC1 [Example 19, N-cyclohexyl-N-ethyl-3-[2-(trans-4-ethylcyclohexyl)-3H-imidazo[4,5-b]pyridin-3-yl]propanamide] | > 200 | 1.95 | 28.13 | –
CCN(C(=O)CCn1c2cccc(C(F)F)c2nc1[C@H]1CC[C@H](C)CC1)C1CCCCC1 [Example 20, N-cyclohexyl-3-[4-(difluoromethyl)-2-(trans-4-methylcyclohexyl)-1H-benzimidazol-1-yl]-N-ethylpropanamide] | 100 | 1.56 | 12.50 | –
CCN(C(=O)CCn1c(C2CCN(C(=O)OC(C)(C)C)C2)nc2cc(F)ccc21)C1CCCCC1 (stereo not drawn) [Example 21, tert-butyl 3-(1-{3-[cyclohexyl(ethyl)amino]-3-oxopropyl}-5-fluoro-1H-benzimidazol-2-yl)pyrrolidine-1-carboxylate] | > 200 | 0.78 | 13.54 | –
CCN(C(=O)CCn1c2ccc(C#N)cc2nc1[C@H]1CC[C@H](CC)CC1)C1CCCCC1 [Example 22, 3-[5-cyano-2-(trans-4-ethylcyclohexyl)-1H-benzimidazol-1-yl]-N-cyclohexyl-N-ethylpropanamide] | > 200 | 0.36 | 0.88 | –
CCOC(=O)N1CCCC(c2nc3ccc(F)cc3n2CCC(=O)N(CC)C2CCCCC2)C1 (stereo not drawn) [Example 23, Ethyl 3-(1-{3-[cyclohexyl(ethyl)amino]-3-oxopropyl}-6-fluoro-1H-benzimidazol-2-yl)piperidine-1-carboxylate] | > 200 | 9.38 | 37.50 | –
